These results are taken from patent US20110064789A1, “DOCOSAHEXANOIC ACID AS INHIBITOR OF H. PYLORI” (priority 2009, published 2011).

Each structure is given as a SMILES string.

In data set [1] the test system is H. pylori. To be noted: cited from earlier work.
Data set [2] relates to H. pylori strain SS1. Put plainly: Mouse model for H. pylori gastric colonization, DHA in drinking water. The note with it: for stomach colonization / mice in which colonization by H. pylori occurred / inhibition of H. pylori growth (gastric colonization): DHA 50 μM in drinking water. It counts as in vivo. The text has this:
Five-weeks-old specific pathogen-free C57BU6 male mice have been purchased from Charles River Laboratories (France). Animals were housed in microisolators in polycarbonate cages. Food has been supplied ad libitum. Standard diet was purchased from SAFE (Epinay/Orge, France). Animals were acclimatized for one week before inoculation. The experiments reported in the study were approved in advanced by the Central Animal Facility Committee of Institut Pasteur, in conformity with the French Ministry of Agriculture Guidelines for Animal Care.
H. pylori strain SS1 was grown on blood agar plates, harvested after 24 h and suspended in peptone broth. Twenty four mice (n=24) were orogastrically inoculated 100 μL of a suspension of 10^8 CFU/mL of H. pylori strain SS1, whereas non-infected groups of mice (n=24) were given 100 μL of peptone broth. Mice were sacrificed 1 or 3 months after infection. For each time point, the experiments consisted in 4 groups of mice, 2 groups received drinking water and for the two other groups, drinking water was supplemented with DHA at a final concentration of 50 μM. Dose of 50 μM corresponds more precisely to a quantity of 0.068 mg of DHA received by each mouse each day. Each two groups consisted of one uninfected-group (n=6) and one H. pylori strain SS1 infected-group (n=6). Stomachs were isolated from each mouse and used to measure H. pylori colonization as previously described by Ferrero et al.^51
C57BL/6 mice were therefore infected with SS1 strain and start on DHA treatment for the whole period of the experiment, which was given in their drinking water in a concentration of 50 μM. Mice were sacrificed at one, three, six or nine months of infection.

In data set [3] the test system is H. pylori SS1 strain. In words: Efficiency of DHA versus standard therapy in H. pylori eradication in mice. The class given is in vivo, C57BL/6 mice. The note with it: mice infected one month; DHA 15 days, standard therapy 7 days. The text has this:
C57BU6 mice have been infected with H. pylori SS1 strain for one month and proceed to treatment with DHA for 15 days or/and standard therapy for 7 days, as described elsewhere by Lee et al.^52 and van Zanten et al.^53. According to the standard therapy, mice received omeprazole (400 μmol/kg/day), metronidazole (14.2 μmol/kg/day) and clarithromycin (7.15 μmol/kg/day)^53.

Data set [4] deals with H. pylori strains 26695 (ATCC 700392), SS1 and B128. In words: In vitro incubation of H. pylori broth cultures with DHA added at time 0 (growth, viable CFU). It counts as cell-based, Helicobacter pylori. To be noted: DHA 250 μM.
In data set [5] the test system is H. pylori strains 26695, SS1 and B128. In words: In vitro addition of DHA to a 12 hours H. pylori culture (bactericidal/bacteriostatic effect, CFU). The note with it: versus prior art doses. It counts as cell-based, Helicobacter pylori. As to the method: Stock solutions of DHA were diluted at desired concentrations (from 10 μM to 1000 μM) in Brucella broth (BB) enriched with 10% FBS. […] Each experiment consisting of a control (bacterial medium) and bacteria incubated with DHA at 10 μ[…] and 1000 μM was performed in triplicate. DHA was added at the time 0 of the experiments or after 12 hours. H. pylori broth cultures were incubated microaerophilically, at 37° C. for 48 hours. Every 6 hours, the OD 600 nm of the cultures was measured and 200 μL samples were diluted and plated on blood agar plates for the numeration of viable bacteria (colony-forming-units (CFU)) after 48 hours of incubation at 37° C. The question as to whether DHA has a bactericidal effect was answered by conducting an experiment where DHA was added to a 12 hours H. pylori culture. FIG. 2 represents the viability of the three strains of H. pylori used. Addition of DHA after 12 hours of H. pylori growth led to a decrease of the ability to form CFU in a dose dependent manner.

The test system of data set [6] is H. pylori. To be noted: in vitro assay of Thompson et al.; cited from earlier work.

With `CCC(C(=O)O)c1ccccc1` (stereo not shown) [2-phenylbutyrate], the “effect on growth of H. pylori” value in data set [1] was “ability to inhibit the growth of H. pylori”.

Regarding `O=C(O)CCCc1ccccc1` [4-phenylbutyrate], the “effect on growth of H. pylori” value in data set [1] is given as “ability to inhibit the growth of H. pylori”.

Regarding `CC/C=C\C/C=C\C/C=C\C/C=C\C/C=C\C/C=C\CCC(=O)O` [DHA, docosahexaenoic acid], in data set [2] (25, 50 and 100 μM tested in drinking water), the “dose that showed a higher inhibitory role in gastric colonization” value came out at 50 µM. The stomach colonization in data set [2] (after 1 month of infection) is on record as 0.47×10^5 CFU/g gastric tissue; in data set [2] (after the third month), 0.62×10^5 CFU/g gastric tissue. In addition, the “mice in which colonization by H. pylori occurred” value in data set [2] (first month of infection) amounted to 20%; in data set [2] (third month), 50%. Moreover, the “inhibition of H. pylori growth (gastric colonization)” value in data set [2] (nine months of infection) is on record as “about 100 fold”; in data set [2] (one, three and six months of infection) it was “approximately 10 fold”. Besides, in data set [2] (DHA 50 μM in mice drinking water, 0.068 mg per mouse per day), the toxicity entry is given as “no toxicity concerns”. The compound further returned a lower gastric colonization in data set [3] of 10 times. Moreover, the “bacterial viability of strain 26695 as compared to SS1” value in data set [4] was found to be 100 times. Moreover, the “doses giving bactericidal and bacteriostatic effects, lower than the prior art doses” value in data set [5] lay in the range of 5 to 10 times.

With `CC/C=C\C/C=C\C/C=C\C/C=C\C/C=C\CCCC(=O)O` [EPA], the “concentration that could inhibit the growth of H. Pylori” value in data set [6] was 0.2 mM.

In the case of `CC/C=C\C/C=C\C/C=C\CCCCCCCC(=O)O` [linolenic acid ω-3C18:3], the “concentration that could inhibit the growth of H. Pylori” value in data set [6] is recorded as 0.2 mM.

`CCCCC/C=C\C/C=C\C/C=C\CCCCC(=O)O` [ω-6C18:3, linolenic acid ω-6C18:3]: the “concentration that could inhibit the growth of H. Pylori” value in data set [6] was 0.2 mM.
